Laboratory results published in publication PMC10384010, “Chromatographic Data in Statistical Analysis of BBB Permeability Indices” (Membranes, 2023).

Assays:
[1] = Normal-phase TLC on silica gel 60 F254 (Rf); format: physicochemical; conditions: water:methanol:acetonitrile 60:20:20, ammonium acetate pH 7.4
Method: (§1) The purity of the isolated substances was checked by TLC chromatography and densitometric scanning.
(§2) APIs were subjected to chromatographic in column (HPLC) and thin layer (TLC) formats. TLC chromatography was carried out on 20 cm × 20 cm glass plates by Merck, covered with silica gel and the addition of a fluorescent indicator. Merck TLC silica gel 60 F254 was used for the normal phase (NP). In the reverse phase (RP), RP-2 silanized plates were used (Merck TLC Silica gel 60 RP-2 F254, silanized). The mobile phase was buffered with ammonium acetate to pH 7.4 (LACH-NER, ammonium acetate).
(§3) Plates, after developing the chromatograms, were scanned using a densitometer (Desaga CD 60) with an analytical wavelength selected individually for drugs. The values of Rf (molecular descriptors: NP, RP) were determined.

[2] = Reversed-phase TLC on RP-2 silanized plates (Rf); format: physicochemical; conditions: silica gel 60 RP-2 F254 silanized; water:methanol:acetonitrile 60:20:20, ammonium acetate pH 7.4
Method: as §1, §2, §3

[3] = HPLC on IAM (immobilized artificial membrane) column, retention factor; format: physicochemical; conditions: IAM.PC.DD.2 column; for k(IAM) retention factor: 10 mM phosphate buffer pH 7.4:acetonitrile 80:20; for logkIAM: logarithm of retention factor, phosphate buffer pH 7.4:acetonitrile 80:20
Method: Chromatographic data also came from an experiment with a HPLC IAM (immobilized artificial membrane) column (Regis Technologies Inc.: IAM.PC.DD.2, 10 µm; 4.6 mm × 10 mm). The column contains a standard membrane consisting of a phospholipid bilayer. Organic solvents (acetonitrile and methanol) and water (J.T. Baker HPLC) were used in HPLC. Sigma phosphate buffered saline tablets were used to prepare the phosphate buffer. The mobile phase was a mixture of 10 mM phosphate buffer at pH 7.4 and acetonitrile in the ratio of 80:20 (v/v) [35]. The mobile phase flow was set at 0.5 mL/min; detection was carried out with a UV–Vis detector. The obtained values of the retention factor (k IAM) were transformed into a logarithmic form and entered into the statistical analysis (descriptor: log k IAM).

[4] = entering the CNS / not entering the CNS; ref Drugbank [36]; cited from earlier work
[5] = plasma protein binding, given as fraction; ref Drugbank; cited from earlier work

Row | Structure (SMILES) | NP (Rf from NP TLC plate) [1] | RP (Rf from RP-2 TLC plate) [2] | k(IAM) retention factor [3] | logkIAM [3] | CNS+/- [4] | PB (protein binding) [5]
1 | CC(=O)Oc1ccccc1C(=O)O [acetylsalicylic acid] | 0.89 | 0.98 | 0.03 | -1.52 | 1 | 0.995
2 | COc1ccc(CCN2CCC(Nc3nc4ccccc4n3Cc3ccc(F)cc3)CC2)cc1 [astemizol] | 0.62 | 0.65 | 26.27 | 1.42 | 1 | 0.967
3 | CC[C@H]1OC(=O)[C@H](C)[C@@H](O[C@H]2C[C@@](C)(OC)[C@@H](O)[C@H](C)O2)[C@H](C)[C@@H](O[C@@H]2O[C@H](C)C[C@H](N(C)C)[C@H]2O)[C@](C)(O)C[C@@H](C)CN(C)[C@H](C)[C@@H](O)[C@]1(C)O [azithromycin] | 0.63 | 0.24 | 0.06 | -1.20 | 0 | 0.29
4 | CC(C)NCC(O)COc1ccc(COCCOC(C)C)cc1 (stereo not shown) [bisoprolol] | 0.67 | 0.57 | 6.74 | 0.83 | 0 | 0.3
5 | O=C1CN=C(c2ccccn2)c2cc(Br)ccc2N1 [bromazepam] | 0.87 | 0.83 | 2.21 | 0.34 | 1 | 0.7
6 | CCCCN1CCCCC1C(=O)Nc1c(C)cccc1C (stereo not shown) [bupivacaine] | 0.67 | 0.74 |  |  | 1 | 0.95
7 | COc1ccccc1OCCNCC(O)COc1cccc2[nH]c3ccccc3c12 (stereo not shown) [carvedilol] | 0.73 |  |  |  | 0 | 0.98
8 | CO/N=C(\C(=O)N[C@@H]1C(=O)N2C(C(=O)O)=C(COC(N)=O)CS[C@H]12)c1ccco1 [cefuroxime] | 0.97 | 0.88 | 1.69 | 0.23 | 0 | 0.5
9 | Cc1ccc(-c2cc(C(F)(F)F)nn2-c2ccc(S(N)(=O)=O)cc2)cc1 [celecoxib] | 0.98 | 0.75 | 50.01 | 1.70 | 1 | 0.97
10 | NS(=O)(=O)c1cc(C2(O)NC(=O)c3ccccc32)ccc1Cl (stereo not shown) [chlortalidone] | 0.96 |  | 1.32 | 0.12 | 1 | 0.75
11 | CN/C(=N/CCSCc1nc[nH]c1C)NC#N [cimetidine] | 0.64 | 0.88 | 0.26 | -0.58 | 0 | 0.17
12 | COc1cc(N)c(Cl)cc1C(=O)NC1CCN(CCCOc2ccc(F)cc2)CC1OC (stereo not shown) [cisapride] | 0.64 | 0.65 | 57.99 | 1.76 | 1 | 0.975
13 | CN1C(=O)CC(=O)N(c2ccccc2)c2cc(Cl)ccc21 [clobazam] | 0.95 | 0.79 | 2.58 | 0.41 | 1 | 0.85
14 | Clc1cccc(Cl)c1N=C1NCCN1 [clonidine] | 0.49 | 0.73 | 2.83 | 0.45 | 1 | 0.3
15 | CN1CCC(=C2c3ccccc3C=Cc3ccccc32)CC1 [cyproheptadine] | 0.45 | 0.45 | 23.79 | 1.38 | 1 | 0.975
16 | C[C@H]1c2cccc(O)c2C(=O)C2=C(O)[C@]3(O)C(=O)C(C(N)=O)=C(O)[C@@H](N(C)C)[C@@H]3[C@@H](O)[C@@H]21 [doxycycline] | 0.06 | 0.08 | 1.76 | 0.24 | 0 | 0.9
17 | CCOC(=O)[C@H](CCc1ccccc1)N[C@@H](C)C(=O)N1CCC[C@H]1C(=O)O [enalapril] | 0.33 | 0.6 | 0.05 | -1.29 | 0 | 0.55
18 | COC(=O)[C@@H]1CC2=CC(=O)CC[C@]2(C)[C@@]23O[C@@H]2C[C@@]2(C)[C@@H](CC[C@@]24CCC(=O)O4)[C@H]13 [eplerenone] | 0.94 | 0.84 | 1.54 | 0.19 | 1 | 0.5
19 | OCCN1CCN(CCC=C2c3ccccc3Sc3ccc(C(F)(F)F)cc32)CC1 [flupenthixol] | 0.51 | 0.66 | 51.21 | 1.71 | 1 | 0.95

Row | Structure (SMILES) | NP (Rf from NP TLC plate) [1] | RP (Rf from RP-2 TLC plate) [2] | k(IAM) retention factor [3] | logkIAM [3] | CNS+/- [4] | PB (protein binding) [5]
20 | Cc1ccc(S(=O)(=O)NC(=O)NN2CC3CCCC3C2)cc1 (stereo not shown) [gliclazide] | 0.95 | 0.83 | 0.28 | -0.55 | 1 | 0.94
21 | OCCOCCN1CCN(C(c2ccccc2)c2ccc(Cl)cc2)CC1 (stereo not shown) [hydroxyzine] | 0.55 |  | 13.82 | 1.14 | 1 | 0.93
22 | COc1ccc2c(c1)c(CC(=O)O)c(C)n2C(=O)c1ccc(Cl)cc1 [indomethacin] |  |  | 1.08 | 0.03 | 1 | 0.97
23 | CCC(C)n1ncn(-c2ccc(N3CCN(c4ccc(OCC5COC(Cn6cncn6)(c6ccc(Cl)cc6Cl)O5)cc4)CC3)cc2)c1=O (stereo not shown) [itraconazole] | 0.96 | 0.86 |  |  | 0 | 0.998
24 | O=C(c1ccccc1)c1ccc2n1CCC2C(=O)O (stereo not shown) [ketorolac] | 0.92 | 0.96 |  |  | 1 | 0.99
25 | CN1CCC(=C2c3ccccc3CC(=O)c3sccc32)CC1 [ketotifen] | 0.34 | 0.75 | 22.04 | 1.34 | 1 | 0.75
26 | CC[C@@H](C(N)=O)N1CCCC1=O [levetiracetam] | 0.92 | 0.92 |  |  | 1 | 0.1
27 | CCC[C@@H]1C[C@@H](C(=O)N[C@@H]([C@H]2O[C@H](SC)[C@H](O)[C@@H](O)[C@H]2O)[C@@H](C)O)N(C)C1 [lincomycin] | 0.91 |  |  |  | 0 | 0.7
28 | O=C1Nc2ccc(Cl)cc2C(c2ccccc2Cl)=NC1O (stereo not shown) [lorazepam] |  |  | 9.04 | 0.96 | 1 | 0.87
29 | Nc1ccc(O)c(C(=O)O)c1 [mesalazine] |  | 0.99 |  |  | 0 | 0.43
30 | C[C@](N)(Cc1ccc(O)c(O)c1)C(=O)O [methyldopa] | 0.38 | 0.85 | 0.10 | -1.02 | 0 | 0.2
31 | CCOC(=O)C1=C(C)NC(C)=C(C(=O)OC)C1c1cccc([N+](=O)[O-])c1 (stereo not shown) [nitrendipine] | 0.97 | 0.86 |  |  | 0 | 0.99
32 | NC(=O)N1c2ccccc2CC(=O)c2ccccc21 [oxcarbamazepine] | 0.91 | 0.91 |  |  | 1 | 0.4
33 | COc1ccnc(C[S+]([O-])c2nc3ccc(OC(F)F)cc3[nH]2)c1OC (stereo not shown) [pantoprazole] | 0.93 | 0.85 | 2.19 | 0.34 | 0 | 0.98
34 | CC(C)NCC(O)c1ccc(NS(C)(=O)=O)cc1 (stereo not shown) [sotalol] | 0.48 | 0.85 | 1.35 | 0.13 | 1 | 
35 | CCCc1nc2c(C)cc(-c3nc4ccccc4n3C)cc2n1Cc1ccc(-c2ccccc2C(=O)O)cc1 [telmisartan] | 0.9 | 0.87 | 4.68 | 0.67 | 1 | 
36 | CC(C)(C)NC[C@H](O)COc1nsnc1N1CCOCC1 [timolol] | 0.34 | 0.97 |  |  | 0 | 0.1
37 | OCCN1CCN(CC/C=C2/c3ccccc3Sc3ccc(Cl)cc32)CC1 [zuclopenthixol] | 0.47 |  | 48.73 | 1.69 | 1 | 0.985
